Experiments:
[1] = biological target: T1, THIK-1 (Homo sapiens, UniProt Q9HB14); assay: Q-Patch automated electrophysiology, HEK-hTHIK-1 cells; format: cell-based
T1 construct: expressed in transfected cells
T1 sequence (Q9HB14 1-408): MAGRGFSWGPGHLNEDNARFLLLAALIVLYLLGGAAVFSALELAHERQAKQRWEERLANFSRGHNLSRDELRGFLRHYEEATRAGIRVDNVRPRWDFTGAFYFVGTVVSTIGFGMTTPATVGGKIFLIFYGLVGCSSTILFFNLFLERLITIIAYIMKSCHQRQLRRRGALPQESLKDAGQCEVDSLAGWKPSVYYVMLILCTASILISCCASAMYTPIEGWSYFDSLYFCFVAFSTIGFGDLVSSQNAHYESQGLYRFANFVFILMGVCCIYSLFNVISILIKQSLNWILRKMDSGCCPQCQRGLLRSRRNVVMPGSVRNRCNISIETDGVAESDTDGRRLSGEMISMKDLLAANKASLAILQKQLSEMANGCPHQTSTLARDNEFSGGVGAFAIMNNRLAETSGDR
Description: HEK-293 cells were transfected with human THIK-1, TREK-1, TWIK-2, or mouse THIK-1 cDNA cloned into pcDNA3.1, using either Fugene HD transfection reagent (Promega) or electroporation (MaxCyte STX instrument). Cells stably expressing the relevant genes were selected based on resistance to 500 μg/ml geneticin (Gibco). For human THIK-1 and TWIK-2 expressing cells, monoclonal lines were isolated by limited dilution cloning; mouse THIK-1 and human TREK-1 expressing cells were maintained as polyclonal pools. The HEK-293 pools and monoclones stably expressing the relevant genes were maintained in DMEM (Life Technologies), supplemented with 10% FCIII (HyClone, Fetal clone III) and 500 μg/ml geneticin. A CHO-Kv2.1 cell line was purchased from Millipore (accession NM_004975) and maintained in F12 (Life Technologies), supplemented with 10% FCSIII (Thermo Scientific) and 500 μg/ml geneticin (Life Technologies). For thallium flux assays, banks of frozen cell aliquots were prepared the day prior to assay, cells were thawed into media and seeded into PDL coated 384-well plates (Corning) at 25,000 (human/mouse THIK-1, TREK-1) or 30,000 (TWIK-2) cells/well (25 μl/well). CHO-Kv2.1 cells were seeded into non-PDL coated plates (Corning) at 5000 cells/well. […]
THIK-1 mediated currents were measured using the Q-Patch 48 automated electrophysiology platform (Sophion, Denmark). […]

[2] = biological target: T1, THIK-1; assay: Competition radioligand binding with 3H-C101505, membranes from HEK-hKCNK13 cells
Description: From within the same chemotype as C101248, a structurally related compound (C101505) was tritiated for use in radioligand binding studies (specific activity 14 Ci/mmol). All radioligand binding assays were performed by Gifford Bioscience (Birmingham, UK). Cells were grown to approximately 90% confluence, washed twice with PBS and once with PBS with sucrose (10%) solution that was removed before the flasks were stored at −80 °C. Upon thawing, ice-cold lysis buffer (50 mM Tris-HCl; 5 mM MgCl2; 5 mM EDTA; protease inhibitor cocktail) was added to the flasks for 5 min (4 °C) and the cell layer scraped into collection tubes. The lysate was centrifuged at 13,000 g for 10 min (4 °C) to pellet the membranes. […] A sample of the homogenate was analysed for protein content using a BCA protein assay kit. […] Filters were then dried under a warm air stream, sealed in polyethylene, scintillation cocktail added, and the radioactivity counted in a MicroBeta TriLux counter (Wallac). […] The in vitro binding affinity (Ki) of C101248 was calculated from the experimental IC50 value using the Cheng-Prusoff equation (([Cheng and Prusoff, 1973]) Ki = IC50/(1 + ([L]/KD)), where [L] was the radioligand concentration in the displacement assay and KD was the radioligand dissociation constant determined from previous saturation binding studies.

maximum inhibition (Q-Patch) ([1]; HEK-hTHIK-1): 94% | IC50 ([1]; HEK-hTHIK-1, step to +40 mV, normalised to TPA, read-out: IC50, inhibition of basal currents (Q-Patch)): 0.147 µM | Ki ([2]; Cheng-Prusoff from IC50, radioligand 3H-C101505): 0.057 µM | IC50 ([2]; radioligand 3H-C101505, HEK-hKCNK13 membranes, read-out: IC50, displacement of radioligand): 0.077 µM
SMILES: Nc1nonc1-c1nc2ccccc2n1Cc1ccncc1 [C101248]
